In publication PMC11220827 (Frontiers in Pharmacology, 2024):

How the values were obtained:
[1] = target: T1, MAO-A (Rattus norvegicus, UniProt P21396); assay: Pharmacology profiling: MAO-A (antagonist RL); assay type: binding; conditions: for inhibition at 10 µM: read-out: MAO-A (antagonist RL): % inhibition @10 µM
T1 sequence (P21396 1-526): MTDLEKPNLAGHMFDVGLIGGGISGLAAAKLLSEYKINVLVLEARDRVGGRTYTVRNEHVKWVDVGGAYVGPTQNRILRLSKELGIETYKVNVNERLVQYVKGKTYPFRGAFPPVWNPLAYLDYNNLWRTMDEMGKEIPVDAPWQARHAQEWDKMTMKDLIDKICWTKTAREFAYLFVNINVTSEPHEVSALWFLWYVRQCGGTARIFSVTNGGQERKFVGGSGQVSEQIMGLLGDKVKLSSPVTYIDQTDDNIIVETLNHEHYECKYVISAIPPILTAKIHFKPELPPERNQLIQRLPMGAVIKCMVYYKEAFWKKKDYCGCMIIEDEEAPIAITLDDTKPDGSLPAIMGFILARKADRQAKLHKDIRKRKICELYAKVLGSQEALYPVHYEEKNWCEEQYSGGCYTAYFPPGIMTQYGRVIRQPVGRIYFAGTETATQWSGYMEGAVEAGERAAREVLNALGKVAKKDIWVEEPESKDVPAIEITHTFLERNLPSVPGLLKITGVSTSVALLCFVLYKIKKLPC
Text: (§10) targets. The list of targets included the original panel of 44 targets (including receptors, ion channels,
(§11) transporters and enzymes) recommended by 4 major pharmaceutical companies as significant
(§12) reasoned to link to pathological effects. Results showing an inhibition or stimulation higher than 50%
(§13) are considered to represent significant effects (i.e. a “hit”).
(§14) and 50% are indicative of weak to moderate effects and results showing an inhibition (or stimulation)
(§15) around the control level. For several targets, additional concentration effect assays were conducted to
(§16) determine the potency (IC50). The concentrations tested (in duplicate) ranged between 30 nM and 100

[2] = target: T2, Adenosine A1 (h) (Homo sapiens, UniProt P30542); assay: Pharmacology profiling: Adenosine A1 (h) (antagonist RL); assay type: binding; conditions: for inhibition at 10 µM: read-out: Adenosine A1 (h) (antagonist RL): % inhibition @10 µM
T2 sequence (P30542 1-326): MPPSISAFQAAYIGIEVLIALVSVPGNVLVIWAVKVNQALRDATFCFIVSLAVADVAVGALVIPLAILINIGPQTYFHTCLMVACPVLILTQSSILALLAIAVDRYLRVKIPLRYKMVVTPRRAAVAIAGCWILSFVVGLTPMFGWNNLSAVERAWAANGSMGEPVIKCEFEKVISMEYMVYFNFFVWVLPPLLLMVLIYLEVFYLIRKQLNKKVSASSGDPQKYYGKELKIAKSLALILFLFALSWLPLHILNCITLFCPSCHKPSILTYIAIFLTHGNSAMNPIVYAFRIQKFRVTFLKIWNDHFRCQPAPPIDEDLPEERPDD
Text: as §10, §11, §12, §13, §14, §15, §16

[3] = target: T3, COX2 (h) (Homo sapiens, UniProt P35354); assay: Pharmacology profiling: COX2 (h); assay type: biochemical; conditions: for inhibition at 10 µM: read-out: COX2 (h): % inhibition @10 µM
T3 sequence (P35354 18-604): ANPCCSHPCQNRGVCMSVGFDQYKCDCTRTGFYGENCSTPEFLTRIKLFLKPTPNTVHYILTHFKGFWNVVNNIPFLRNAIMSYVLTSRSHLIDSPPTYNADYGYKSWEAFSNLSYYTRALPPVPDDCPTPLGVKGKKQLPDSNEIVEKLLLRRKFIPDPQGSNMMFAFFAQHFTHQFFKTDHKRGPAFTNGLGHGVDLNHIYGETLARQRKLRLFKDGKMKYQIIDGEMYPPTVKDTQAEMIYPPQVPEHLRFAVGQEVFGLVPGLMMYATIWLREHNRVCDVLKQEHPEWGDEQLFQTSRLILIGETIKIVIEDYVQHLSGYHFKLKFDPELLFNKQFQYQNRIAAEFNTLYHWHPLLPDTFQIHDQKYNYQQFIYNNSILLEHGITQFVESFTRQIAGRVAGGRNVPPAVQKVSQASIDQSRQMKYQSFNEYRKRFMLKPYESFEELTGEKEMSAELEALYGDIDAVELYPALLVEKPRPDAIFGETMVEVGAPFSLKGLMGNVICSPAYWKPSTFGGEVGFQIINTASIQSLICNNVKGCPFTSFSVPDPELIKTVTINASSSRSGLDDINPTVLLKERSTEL
Text: (§1) Cosmetics Europe’s Systemic Toxicity Taskforce (SysTox-TF) has extended the list of targets in an in vitro screen originally described by [Bowes et al. (2012)] to assess the effects of cosmetic chemicals on target molecules. The approach was based on the knowledge that various targets of pharmacological interest have been linked to human adverse drug reactions, and that screening of these has helped the pharma industry in identifying drug candidates with acceptable human safety profiles ([Bowes et al., 2012]; [Scott et al., 2022]). The methods used by the pharma industry were adapted for use in cosmetic chemical NGRA. A final list of 83 target assays were considered suitable for cosmetic chemical safety testing (see Supplementary Materials S1.7). The targets were receptors, ion channels, transporters and enzymes identified by the pharma industry as linked to human adverse drug reactions, supplemented by additional targets that have been reasoned to be linked to systemic toxicities of chemicals in animals. Chemicals that are flagged for a target are tested in follow-up dose-response assays to establish potency of the interaction. […]. [Valentin et al., 2018]; [Dodson et al., 2021]). […].
(§2) assay’s reference compound was set to 100%. For antagonist assays, the basal signal (exposure to fixed concentration of agonist only) was set to 100%. Activity of the samples was scaled accordingly, […]
(§3) Using these graphs, lowest […]
(§4) compound activity for antagonist assays.
(§5) S1.7. Pharmacology profiling assays […]
(§6) reasoned to link to pathological effects. […]
(§7) around the control level. […]
(§8) determine the potency (IC50).
(§9) Supplementary Table S4 Pharmacology profiling assay panel. […]

[4] = target: PDE4D2 (h) (Homo sapiens, UniProt Q08499); assay: Pharmacology profiling: PDE4D2 (h) (phosphodiesterase 4D); assay type: biochemical; conditions: for inhibition at 10 µM: read-out: PDE4D2 (h) (phosphodiesterase 4D): % inhibition @10 µM
Sequence of PDE4D2 (h) (Q08499 303-809): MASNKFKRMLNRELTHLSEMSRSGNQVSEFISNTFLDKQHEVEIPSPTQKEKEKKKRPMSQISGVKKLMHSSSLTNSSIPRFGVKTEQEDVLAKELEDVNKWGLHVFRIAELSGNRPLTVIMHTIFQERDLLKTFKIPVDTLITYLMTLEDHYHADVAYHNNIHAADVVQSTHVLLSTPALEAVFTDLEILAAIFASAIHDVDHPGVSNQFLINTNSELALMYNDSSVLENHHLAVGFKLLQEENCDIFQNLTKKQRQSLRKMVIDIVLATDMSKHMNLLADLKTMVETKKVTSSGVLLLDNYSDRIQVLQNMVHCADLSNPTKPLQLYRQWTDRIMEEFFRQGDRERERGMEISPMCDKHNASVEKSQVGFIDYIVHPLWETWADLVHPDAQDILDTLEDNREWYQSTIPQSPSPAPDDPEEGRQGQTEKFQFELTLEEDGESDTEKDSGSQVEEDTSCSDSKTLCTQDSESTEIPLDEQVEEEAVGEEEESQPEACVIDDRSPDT
Text: as §1, §2, §3, §4, §5, §6, §7, §8, §9

[5] = system: MCF-7 cells; assay: Transcriptomics (TempO-Seq, BMD analysis) in MCF-7 cells; assay type: cell-based, human; conditions: for Lowest median BMD, 3 genes passing all filters / Lowest median BMD, >5 genes passing all filters / BMD relating to estrogen effects: MCF-7, 24 h; for Lowest median BMD, 3 genes passing all filters / Lowest median BMD, >5 genes passing all filters: pathway differs per chemical; for BMD relating to estrogen effects: pathway named in the cell
Protocol: (§17) These differed with respect to the number of genes passing all filters in each pathway (3 versus 5 genes). […] Therefore, we captured pathways which fulfilled both criteria.
(§18) HepG2 (human hepatoblastoma) , MCF-7 (human breast adenocarcinoma) cells supplied by
(§19) Public Health England European Collection of Cell Cultures (ECACC, Salisbury, UK). Differentiated
(§20) HepaRG cells (HPR116, Lot HPR116239 -TA08) were from Biopredic International (Rennes, France).
(§21) Test chemicals were prepared in DMSO as serial dilutions, resulting in concentrations in media of
(§22) biological replicates were treated with the appropriate dose of co mpound for 24 h prior to cell lysis.
(§23) Biospyder human whole genome panel version 1 (https://biospyder.com).
Gene normalization and analysis
(§24) expression values for each probe were normalized by applying DESEQ2 normalization. A pseudo-
(§25) read-count of 1.0 was added to each normalized expression value, and then the values were log2
(§26) transformed . Analyses performed included Gene and Pathway, Dose Response and Network
(§27) monotonic increasing/decreasing trend were those which confirmed to the criteria : William’s trend
(§28) Those genes were then used in categorical (pathway) analysis for the Gene Ontology (GO) terms and
(§29) REACTOME pathways. Significant dose responsive pathways were determined according to : Fisher’s

[6] = system: HepG2 cells; assay: Transcriptomics (TempO-Seq, BMD analysis) in HepG2 cells; assay type: cell-based, human; conditions: for BMD relating to estrogen effects: pathway named in the cell; for BMD/NOEC, gene pathway deregulation: HepG2 cells
Protocol: as §17, §18, §19, §20, §21, §22, §23
Gene normalization and analysis
as §24, §25, §26, §27, §28, §29

[7] = system: HepaRG cells; assay: Transcriptomics (TempO-Seq, BMD analysis) in HepaRG cells; assay type: cell-based; conditions: for BMD/NOEC, gene pathway deregulation: HepaRG cells; for Lowest median BMD, 3 genes passing all filters / Lowest median BMD, >5 genes passing all filters / BMD relating to estrogen effects: HepaRG, 24 h; for Lowest median BMD, 3 genes passing all filters / Lowest median BMD, >5 genes passing all filters: pathway differs per chemical; for BMD relating to estrogen effects: pathway named in the cell
Protocol: as §17, §18, §19, §20, §21, §22, §23
Gene normalization and analysis
as §24, §25, §26, §27, §28, §29

[8] = system: Thyroid pathway; parameters: method as in ToxCast; conditions: ref ToxCast, cited from earlier work
[9] = system: TSHR; parameters: method as in ToxCast; conditions: ref ToxCast; cited from earlier work; also: key: Pos = positive result; Neg = negative result; Inc = uncertain/inconclusive result
[10] = system: Thyroid peroxidase; parameters: method as in ToxCast; conditions: ref ToxCast, cited from earlier work; as to Thyroid pathway: Thyroid peroxidase, Call: key: Pos = positive result; Neg = negative result; Inc = uncertain/inconclusive result
[11] = system: Deiodinase; parameters: method as in ToxCast; conditions: ref ToxCast, cited from earlier work; for AC50: read-out: Thyroid pathway: Deiodinase (Not AOP), AC50; as to Thyroid pathway: Deiodinase (Not AOP), Call: key: Pos = positive result; Neg = negative result; Inc = uncertain/inconclusive result
[12] = system: Monooxygenase; parameters: method as in ToxCast; conditions: ref ToxCast, cited from earlier work; for AC50: read-out: Thyroid pathway: Monooxygenase (Not AOP), AC50; as to Thyroid pathway: Monooxygenase (Not AOP), Call: key: Pos = positive result; Neg = negative result; Inc = uncertain/inconclusive result
[13] = HepG2, 24 h, pathway differs per chemical

`O=c1c(-c2ccc(O)cc2)coc2cc(O)cc(O)c12` [Genistein, 5,7-DIHYDROXY-3-(4-HYDROXYPHENYL)-4-BENZOPYRONE] gave an inhibition at 10 µM [1] of 86%, an IC50 [2] of 9.12 µM and an inhibition at 10 µM [2] of 53.5%. For the same molecule, the IC50 [3] was 13.6 µM, the inhibition at 10 µM [3] was 53.8% and the IC50 [4] was 738 nM. The inhibition at 10 µM [4] was 87%, the “Lowest median BMD, 3 genes passing all filters” value [5] was 0.0065 µM and the “Lowest median BMD, >5 genes passing all filters” value [5] was 0.051 µM. The “BMD relating to estrogen effects” value [5] was 60.1 - estrogen 2-hydroxylase activity ↓ µM, the “Lowest median BMD, >5 genes passing all filters” value [6, 13] was 15.7 µM and the “BMD relating to estrogen effects” value ([6]; HepG2, 24 h) was 53.8 - Estrogen-dependent gene expression ↓ µM. For the same molecule, the “BMD/NOEC, gene pathway deregulation” value [6] was 15.7 µM, the “BMD/NOEC, gene pathway deregulation” value [7] was 0.04 µM and the “Lowest median BMD, 3 genes passing all filters” value [7] was 0.040 µM. The “Lowest median BMD, >5 genes passing all filters” value [7] was 0.051 µM, the “BMD relating to estrogen effects” value [7] was 0.11- Estrogen-dependent gene expression ↑ µM and the AC50 ([8]; read-out: Thyroid pathway: Reporter protein Antagonist, AC50) was 13.1 µM. For the same molecule, the “Thyroid pathway: Regulation of transcription factor activity (TSHR), Call” value [9] was “Neg”, the “Thyroid pathway: Thyroid peroxidase, Call” value [10] was “Pos” and the “Thyroid pathway: Deiodinase (Not AOP), Call” value [11] was “Pos”. For the same molecule, the AC50 [11] was 2.43 µM, the “Thyroid pathway: Monooxygenase (Not AOP), Call” value [12] was “Pos” and the AC50 [12] was 9.44 µM.
Molecule `O=c1c(-c2ccc(O)cc2)coc2cc(O)ccc12` [Daidzein, DAIDZEIN] has an IC50 [1] of 9.18 µM, an inhibition at 10 µM [1] of 49.6% and an inhibition at 10 µM [2] of 19.9%. For the same molecule, the inhibition at 10 µM [3] was 21.6%, the inhibition at 10 µM [4] was 0.04% and the “Lowest median BMD, 3 genes passing all filters” value [5] was 0.038 µM. For the same molecule, the “Lowest median BMD, >5 genes passing all filters” value [5] was 0.084 µM, the “BMD relating to estrogen effects” value [5] was 21.3 - response to estrogen ↓ µM and the “Lowest median BMD (BMD/NOEC, gene pathway deregulation)” value ([5]; MCF-7 cells) was 38 nM. For the same molecule, the “Lowest median BMD, 3 genes passing all filters” value [6, 13] was 16.2 µM, the “Lowest median BMD, >5 genes passing all filters” value [6, 13] was 30.0 µM and the “BMD relating to estrogen effects” value ([6]; HepG2, 24 h) was “None”. For the same molecule, the “BMD/NOEC, gene pathway deregulation” value [6] was 16.2 µM, the “BMD/NOEC, gene pathway deregulation” value [7] was 33.1 µM and the “Lowest median BMD, 3 genes passing all filters” value [7] was 33.1 µM. The “Lowest median BMD, >5 genes passing all filters” value [7] was 39.3 µM, the “BMD relating to estrogen effects” value [7] was “None” and the “Thyroid pathway: Reporter protein Agonist, Call” value [8] was “Neg”. For the same molecule, the “Thyroid pathway: Reporter protein Antagonist, Call” value [8] was “Neg”, the “Thyroid pathway: mRNA induction, Call” value [8] was “Neg” and the “Thyroid pathway: Regulation of transcription factor activity (TSHR), Call” value [9] was “Neg”. The “Thyroid pathway: Thyroid peroxidase, Call” value [10] was “Pos”, the AC50 ([10]; read-out: Thyroid pathway: Thyroid peroxidase, AC50) was 10.2 µM and the “Thyroid pathway: Deiodinase (Not AOP), Call” value [11] was “Pos”. For the same molecule, the AC50 [11] was 17.2 µM, the “Thyroid pathway: Monooxygenase (Not AOP), Call” value [12] was “Pos” and the AC50 [12] was 9.1 µM.
